According to patent US20250230193A1, “CYCLIC COMPOUND HAVING SELECTIVE KRAS INHIBITORY EFFECT ON HRAS AND NRAS” (CHUGAI SEIYAKU KABUSHIKI KAISHA, priority 2022, published 2025):
Where a SMILES comes first, the peptide text is derived from it. Bridges are numbered along the chain shown (N, C = ends). [ ]: non-standard residue; d: D form. The star is where a group is joined. hPhe(3-Cl-4-CF3) = N[C@@H](CCc1ccc(C(F)(F)F)c(Cl)c1)C(=O)O; NPrPhe(4-CF3) = CCCN[C@@H](Cc1ccc(C(F)(F)F)cc1)C(=O)O; NMeGly(cPent) = CN[C@H](C(=O)O)C1CCCC1; NMeD = CN[C@@H](CC(=O)O)C(=O)O; NMeL = CN[C@@H](CC(C)C)C(=O)O; Morpholide = C1CN(*)CCO1; NMeA = CN[C@@H](C)C(=O)O; Ac5c = NC1(C(=O)O)CCCC1; Aze = O=C(O)[C@@H]1CCN1; Sar = CNCC(=O)O

Legend:
[1] = molecular target: GDP-bound HRAS wild-type protein (Homo sapiens, UniProt P01112); assay: Binding to HRAS by surface plasmon resonance (SPR), Single Cycle Kinetics; conditions: for HRAS/KRAS (ratio of KD value with respect to HRAS to KD value with respect to KRAS): GDP-bound HRAS wild-type vs GDP-bound KRAS wild-type
GDP-bound HRAS wild-type protein, sequence (P01112 whole entry): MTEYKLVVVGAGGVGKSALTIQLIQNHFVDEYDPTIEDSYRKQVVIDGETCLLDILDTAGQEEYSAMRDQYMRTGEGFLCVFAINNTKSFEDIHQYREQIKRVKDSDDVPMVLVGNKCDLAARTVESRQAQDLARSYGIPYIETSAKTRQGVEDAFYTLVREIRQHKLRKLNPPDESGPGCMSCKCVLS

[2] = molecular target: GDP-bound NRAS wild-type protein (Homo sapiens, UniProt P01111); assay: Binding to NRAS by surface plasmon resonance (SPR), Single Cycle Kinetics; conditions: for NRAS/KRAS (ratio of KD value with respect to NRAS to KD value with respect to KRAS): GDP-bound NRAS wild-type vs GDP-bound KRAS wild-type
GDP-bound NRAS wild-type protein, sequence (P01111 whole entry): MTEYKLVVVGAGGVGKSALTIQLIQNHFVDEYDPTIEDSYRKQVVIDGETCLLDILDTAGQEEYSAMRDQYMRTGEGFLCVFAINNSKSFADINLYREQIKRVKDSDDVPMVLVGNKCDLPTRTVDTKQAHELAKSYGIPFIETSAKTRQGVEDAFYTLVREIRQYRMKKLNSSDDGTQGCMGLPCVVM

Compound: CCO[C@@H]1C[C@H]2C(=O)NC3(CCC3)C(=O)N(C)[C@@H](C3CCCC3)C(=O)N(C)[C@H](C(=O)N3CCOCC3)CC(=O)N(C)[C@@H](Cc3cccnc3)C(=O)N[C@@H]([C@@H](C)CC)C(=O)N(C)CC(=O)N(C)[C@H]3CCCCN(C3=O)[C@@H](Cc3ccc(C(F)(F)F)cc3)C(=O)N(C)CC(=O)N[C@@H](CCc3cc(F)c(C(F)(F)F)c(F)c3)C(=O)N2C1 [PP0718]
- HRAS/KRAS (ratio of KD value with respect to GDP-bound HRAS wild-type protein to KD value with respect to KRAS) ([1]; KD ratio HRAS/KRAS, SPR): B (a compound having 3 or more and less than 10 is denoted as B)
- NRAS/KRAS (ratio of KD value with respect to GDP-bound NRAS wild-type protein to KD value with respect to KRAS) ([2]; KD ratio NRAS/KRAS, SPR): C (A compound having a KD ratio of 0.1 or more and less than 3 is denoted as C)

Compound: CCO[C@@H]1C[C@H]2C(=O)NC3(CCC3)C(=O)N(C)[C@@H](C3CCCC3)C(=O)N(C)[C@H](C(=O)N3CCOCC3)CC(=O)N(C)[C@@H](CC(C)C)C(=O)N[C@@H]([C@@H](C)CC)C(=O)N(C)CC(=O)N(C)[C@H]3C[C@H]4C[C@H]4CN(C3=O)[C@@H](Cc3ccc(C(F)(F)F)cc3)C(=O)N(C)CC(=O)N[C@@H](CCc3cc(F)c(C(F)(F)F)c(F)c3)C(=O)N2C1 [PP0829]
- HRAS/KRAS (ratio of KD value with respect to HRAS to KD value with respect to KRAS) ([1]; SPR): C (A compound having a KD ratio of 0.1 or more and less than 3 is denoted as C)
- NRAS/KRAS (ratio of KD value with respect to NRAS to KD value with respect to KRAS) ([2]; SPR): B (a compound having 3 or more and less than 10 is denoted as B)

Compound: CCO[C@@H]1C[C@H]2C(=O)NC3(CCC3)C(=O)N(C)[C@@H](C3CCCC3)C(=O)N(C)[C@H](C(=O)N(C)C)CC(=O)N(C)[C@@H](CC)C(=O)N[C@@H]([C@@H](C)CC)C(=O)N(C)CC(=O)N(C)[C@H]3CCCCCN(C3=O)[C@@H](Cc3ccc(C(F)(F)F)cc3)C(=O)N(C)CC(=O)N[C@@H](CCc3ccc4sccc4c3)C(=O)N2C1 [PP0892]
- HRAS/KRAS (ratio of KD value with respect to HRAS to KD value with respect to KRAS) ([1]; SPR): B (a compound having 3 or more and less than 10 is denoted as B)
- NRAS/KRAS (ratio of KD value with respect to NRAS to KD value with respect to KRAS) ([2]; SPR): B (a compound having 3 or more and less than 10 is denoted as B)

Compound: CC[C@H](C)[C@@H]1NC(=O)[C@H](CC(C)C)N(C)C(=O)C[C@@H](C(=O)N2CCOCC2)N(C)C(=O)[C@H](C2CCCC2)N(C)C(=O)C2(CCCC2)NC(=O)[C@@H]2CCCN2C(=O)[C@H](CCc2ccc(C(F)(F)F)c(Cl)c2)NC(=O)CN(C)C(=O)[C@H](Cc2ccc(OC)cc2)N2CCCC[C@@H](C2=O)N(C)C(=O)CN(C)C1=O [PP0534]
- HRAS/KRAS (ratio of KD value with respect to GDP-bound HRAS wild-type protein to KD value with respect to KRAS) ([1]; KD ratio HRAS/KRAS, SPR): B (a compound having 3 or more and less than 10 is denoted as B)
- NRAS/KRAS (ratio of KD value with respect to GDP-bound NRAS wild-type protein to KD value with respect to KRAS) ([2]; KD ratio NRAS/KRAS, SPR): B (a compound having 3 or more and less than 10 is denoted as B)

Compound: CCO[C@@H]1C[C@H]2C(=O)NC3(CCC3)C(=O)N(C)[C@@H](C3CCCC3)C(=O)N(C)[C@H](C(=O)N(C)C)CC(=O)N(C)[C@@H](CC)C(=O)N[C@@H]([C@@H](C)CC)C(=O)N(C)CC(=O)N(C)[C@H]3CCCCCN(C3=O)[C@@H](Cc3ccc(F)c(C)c3)C(=O)N(C)CC(=O)N[C@@H](CCc3cc(F)c(C(F)(F)F)c(F)c3)C(=O)N2C1 [PP0912]
- HRAS/KRAS (ratio of KD value with respect to HRAS to KD value with respect to KRAS) ([1]; SPR): B (a compound having 3 or more and less than 10 is denoted as B)
- NRAS/KRAS (ratio of KD value with respect to NRAS to KD value with respect to KRAS) ([2]; SPR): B (a compound having 3 or more and less than 10 is denoted as B)

Compound: CCCN1C(=O)[C@@H]2CCN2C(=O)[C@H](C)N(C)C(=O)[C@H]([C@@H](C)CC)NC(=O)[C@H](CC(C)C)N(C)C(=O)C[C@@H](C(=O)N2CCOCC2)N(C)C(=O)[C@H](C2CCCC2)N(C)C(=O)C2(CCCC2)NC(=O)[C@H](C)NC(=O)[C@H](CCc2ccc(C(F)(F)F)c(Cl)c2)NC(=O)CN(C)C(=O)[C@@H]1Cc1ccc(C(F)(F)F)cc1 [PP0153] ([NMeL]I[NMeA][Aze][NPrPhe(4-CF3)][Sar][hPhe(3-Cl-4-CF3)]A[Ac5c][NMeGly(cPent)][NMeD]-Morpholide; lactam N-11)
- HRAS/KRAS (ratio of KD for GDP-bound HRAS wild-type to KD for KRAS) ([1]; KD ratio HRAS/KRAS, SPR): C (A compound having a KD ratio of 0.1 or more and less than 3 is denoted as C)
- NRAS/KRAS (ratio of KD for GDP-bound NRAS wild-type to KD for KRAS) ([2]; KD ratio NRAS/KRAS, SPR): C (A compound having a KD ratio of 0.1 or more and less than 3 is denoted as C)

Compound: CCO[C@@H]1C[C@H]2C(=O)NC3(CCC3)C(=O)N(C)[C@@H](C3CCCC3)C(=O)N(C)[C@H](C(=O)N(C)C)CC(=O)N(C)[C@@H](CC3CCCC3)C(=O)N[C@@H]([C@@H](C)CC)C(=O)N(C)CC(=O)N(C)[C@H]3C/C=C\CCN(C3=O)[C@@H](Cc3ccc(C)cc3)C(=O)N(C)CC(=O)N[C@@H](CCc3ccc(C4CC4)c(C)c3)C(=O)N2C1 [PP2685]
- HRAS/KRAS (ratio of KD value with respect to GDP-bound HRAS wild-type protein to KD value with respect to KRAS) ([1]; KD ratio HRAS/KRAS, class symbols): A (a compound having 10 or more and less than 20 is denoted as A)
- NRAS/KRAS (ratio of KD value with respect to GDP-bound NRAS wild-type protein to KD value with respect to KRAS) ([2]; KD ratio NRAS/KRAS, class symbols): A (a compound having 10 or more and less than 20 is denoted as A)
